Laboratory results taken from patent US20230103142A1, “SMALL MOLECULE REGULATORS OF NOTCH1 AND USES THEREOF” (THE PENN STATE RESEARCH FOUNDATION, priority 2020, published 2023).
Where two headings read alike, the source gives them in different places.

What was measured:
Notch1/HCT116 clone C4 [1] = test: colony forming assay
Description: (§4) Six biological replicates used for MTT assays and it was repeated twice for each experiment. […] The anchorage-independent growth assay was performed and repeated in triplicate.

Notch1/HCT116 clone C5 [2] = test: colony forming assay
Description: as §4

SW-620 cells = conditions: read-out: IC50 cell viability
Description: as §4

ALDH+ (BCSC) cells = test system: ALDH+ (BCSC) cells
Excerpt: (§1) Studies have shown that Notch1 signaling is mainstay of breast cancer stem cell (BCSC) growth.

ALDH− (BC) cells = test system: ALDH− (BC) cells
Excerpt: as §1

pCMV/HCT116 xenografts = test: xenograft tumor growth study; conditions: 5 mg/kg intraperitoneally thrice a week, 4 weeks
Description: (§5) Xenograft studies: Six- to eight-week-old BALB/c athymic nude mice (nu/nu) (Jackson Laboratory: Bar Harbor, Me., USA) were subcutaneously injected with pCMV/HCT116 and C4 (1×10^6 cells). The monitoring and measurements were performed.

Notch3 in HCT116 cells = test: immunoblot with Notch3 antibody; conditions: HCT116, IC50 concentration, 12 h and 24 h
Description: (§6) Data are presented as the mean±standard deviation (SEM/SD) of three independent experiments. The Student's t-test was used to calculate the statistical significance between the vehicle and treatment at each concentration. *p<0.05 and **p<0.01.

pCMV/HCT116 cells = test: colony forming assay
Description: as §4

[3] = test system: Notch1/HCT116 (C4) xenografts; test: xenograft tumor growth study; conditions: 5 mg/kg intraperitoneally thrice a week, 4 weeks
Description: as §5

[4] = test system: ALDH+ xenotransplanted tumors; test: ALDH+ xenotransplant tumor burden; conditions: ALDH+ xenotransplanted mice
HCT116 cells = conditions: read-out: IC50 cell viability
Description: as §4

MDA-MB-231 cells = test: apoptosis assay
[5] = test system: proteasome in ALDH+ cells; conditions: 15 and 30 min
Excerpt: Commercially available positive and negative controls were used for these experiments. […] Next, ubiquitination-associated NRR of Notch 1 degradation were examined.

MDA-MB-231 TNBC cells = test: cell viability assay; format: cell-based; conditions: for IC50: read-out: IC50 cell growth
Description: Synergistic effects of combinations were calculated via isobologram analysis.

[6] = test system: Bladder Cancer cells (TCCSUP and HT1376); test: MTT assay in bladder cancer cells with low basal Notch1; conditions: low basal level of Notch1, 24 h
Description: Six biological replicates used for MTT assays and it was repeated twice for each experiment. Data are presented, from independent experiments, as the mean±standard deviation (SEM/SD). The Student's t-test was used to calculate the statistical significance between the vehicle and treatment at each concentration. *p<0.05, **p<0.01 and ***p<0.001. […] Six biological replicates used for MTT assays and it was repeated twice for each experiment. Data are presented, from independent experiments, as the mean±standard deviation (SEM/SD). The Student's t-test was used to calculate the statistical significance between the vehicle and treatment at each concentration. *p<0.05 and # Not significant.
Six biological replicates used for MTT assays and it was repeated twice for each experiment.

Notch1/HCT116 clone C5 [7] = conditions: read-out: IC50 cell growth; C5 transfectants, 24 h
Description: (§2) Cell culture and supplies: HCT116, SW-620, TCCSUP, UMUC3, HT1376, 5637, T24 and RT4 cells were purchased from ATCC (American Type Culture Collection; Manassas, Va., USA). HCT116, T24, RT4 were maintained in McCoy's medium, TCCSUP, UMUC3, HT1376 in EMEM, SW620 in DMEM and 5637 in RPMI medium, respectively, and supplemented with 10% FBS and penicillin (100 units/mL) and streptomycin (100 units/mL; Millipore Sigma, St Louis, […]., USA) in the presence of 5% CO2 at 37° C. pCMV6-NOTCH1, vector pCMV6-Entry (NOTCH′ (NM_017617) Human ORF Clone; Origene) and NOTCH1 Human siRNA Oligo Duplex were obtained from Origene Technologies Inc. (Rockville, Md., USA). Lipofectamine 2000 reagent was used following the manufacturer's (Cat #11668019; ThermoFisher Scientific) instruction, transfection with overexpression vectors was performed with 500 ng plasmid concentration, while the siRNA was used in 25 nM concentration. Cells were allowed to be transfected for 48 hrs and later harvested or treated for further analysis. Neomycin ([…]) selection media was used to cultivate Notch1-overexpressing HCT116 clones (C1, C2, C3, C4, C5).

[8] = test system: Notch1 silenced HCT116 cells; conditions: vs scrambled transfected HCT116, 24 h
Description: as §2

Notch1/HCT116 clone C4 [9] = conditions: read-out: IC50 cell growth; C4 transfectants, 24 h
Description: as §2

ubiquitin in ALDH+ cells = test: ubiquitin expression; format: cell-based
Notch2 in HCT116 cells = test: immunoblot with Notch2 antibody; conditions: HCT116, IC50 concentration, 12 h and 24 h
Description: as §6

purified NRR protein = conditions: vs vehicle (DMSO)
Description: (§3) Binding Studies. The protein-ligand binding was first studied by cellular thermal shift assay (CETSA) by following previously described protocol. […] Equal amount of cell lysate was used for ELISA with NRR antibody (Cat: NBP2-62557; Novus Biologicals). GloMelt Thermal Shift Protein Stability assay was performed as per the kit instructions (GloMelt™ Thermal Shift Protein Stability Kit; Biotium; Fermont, Calif.). […] A protein melt run profile was generated and Tm (melting temperature) was calculated using DNA melt curve software. To analyze protein melting, the Tm was considered at the lowest −dF/dT value (at the lowest point on the curve).

[10] = biological target: NRR of Notch1 in HCT116 cells (Homo sapiens, UniProt P46531); conditions: ASR490-treated HCT116 cells
Description: as §3

[11] = read-out: IC 50 cell growth, 24 h
[12] = read-out: IC 50 cell growth, 48 h

NRR of Notch1 in HCT116 cells, sequence (P46531 19-2555): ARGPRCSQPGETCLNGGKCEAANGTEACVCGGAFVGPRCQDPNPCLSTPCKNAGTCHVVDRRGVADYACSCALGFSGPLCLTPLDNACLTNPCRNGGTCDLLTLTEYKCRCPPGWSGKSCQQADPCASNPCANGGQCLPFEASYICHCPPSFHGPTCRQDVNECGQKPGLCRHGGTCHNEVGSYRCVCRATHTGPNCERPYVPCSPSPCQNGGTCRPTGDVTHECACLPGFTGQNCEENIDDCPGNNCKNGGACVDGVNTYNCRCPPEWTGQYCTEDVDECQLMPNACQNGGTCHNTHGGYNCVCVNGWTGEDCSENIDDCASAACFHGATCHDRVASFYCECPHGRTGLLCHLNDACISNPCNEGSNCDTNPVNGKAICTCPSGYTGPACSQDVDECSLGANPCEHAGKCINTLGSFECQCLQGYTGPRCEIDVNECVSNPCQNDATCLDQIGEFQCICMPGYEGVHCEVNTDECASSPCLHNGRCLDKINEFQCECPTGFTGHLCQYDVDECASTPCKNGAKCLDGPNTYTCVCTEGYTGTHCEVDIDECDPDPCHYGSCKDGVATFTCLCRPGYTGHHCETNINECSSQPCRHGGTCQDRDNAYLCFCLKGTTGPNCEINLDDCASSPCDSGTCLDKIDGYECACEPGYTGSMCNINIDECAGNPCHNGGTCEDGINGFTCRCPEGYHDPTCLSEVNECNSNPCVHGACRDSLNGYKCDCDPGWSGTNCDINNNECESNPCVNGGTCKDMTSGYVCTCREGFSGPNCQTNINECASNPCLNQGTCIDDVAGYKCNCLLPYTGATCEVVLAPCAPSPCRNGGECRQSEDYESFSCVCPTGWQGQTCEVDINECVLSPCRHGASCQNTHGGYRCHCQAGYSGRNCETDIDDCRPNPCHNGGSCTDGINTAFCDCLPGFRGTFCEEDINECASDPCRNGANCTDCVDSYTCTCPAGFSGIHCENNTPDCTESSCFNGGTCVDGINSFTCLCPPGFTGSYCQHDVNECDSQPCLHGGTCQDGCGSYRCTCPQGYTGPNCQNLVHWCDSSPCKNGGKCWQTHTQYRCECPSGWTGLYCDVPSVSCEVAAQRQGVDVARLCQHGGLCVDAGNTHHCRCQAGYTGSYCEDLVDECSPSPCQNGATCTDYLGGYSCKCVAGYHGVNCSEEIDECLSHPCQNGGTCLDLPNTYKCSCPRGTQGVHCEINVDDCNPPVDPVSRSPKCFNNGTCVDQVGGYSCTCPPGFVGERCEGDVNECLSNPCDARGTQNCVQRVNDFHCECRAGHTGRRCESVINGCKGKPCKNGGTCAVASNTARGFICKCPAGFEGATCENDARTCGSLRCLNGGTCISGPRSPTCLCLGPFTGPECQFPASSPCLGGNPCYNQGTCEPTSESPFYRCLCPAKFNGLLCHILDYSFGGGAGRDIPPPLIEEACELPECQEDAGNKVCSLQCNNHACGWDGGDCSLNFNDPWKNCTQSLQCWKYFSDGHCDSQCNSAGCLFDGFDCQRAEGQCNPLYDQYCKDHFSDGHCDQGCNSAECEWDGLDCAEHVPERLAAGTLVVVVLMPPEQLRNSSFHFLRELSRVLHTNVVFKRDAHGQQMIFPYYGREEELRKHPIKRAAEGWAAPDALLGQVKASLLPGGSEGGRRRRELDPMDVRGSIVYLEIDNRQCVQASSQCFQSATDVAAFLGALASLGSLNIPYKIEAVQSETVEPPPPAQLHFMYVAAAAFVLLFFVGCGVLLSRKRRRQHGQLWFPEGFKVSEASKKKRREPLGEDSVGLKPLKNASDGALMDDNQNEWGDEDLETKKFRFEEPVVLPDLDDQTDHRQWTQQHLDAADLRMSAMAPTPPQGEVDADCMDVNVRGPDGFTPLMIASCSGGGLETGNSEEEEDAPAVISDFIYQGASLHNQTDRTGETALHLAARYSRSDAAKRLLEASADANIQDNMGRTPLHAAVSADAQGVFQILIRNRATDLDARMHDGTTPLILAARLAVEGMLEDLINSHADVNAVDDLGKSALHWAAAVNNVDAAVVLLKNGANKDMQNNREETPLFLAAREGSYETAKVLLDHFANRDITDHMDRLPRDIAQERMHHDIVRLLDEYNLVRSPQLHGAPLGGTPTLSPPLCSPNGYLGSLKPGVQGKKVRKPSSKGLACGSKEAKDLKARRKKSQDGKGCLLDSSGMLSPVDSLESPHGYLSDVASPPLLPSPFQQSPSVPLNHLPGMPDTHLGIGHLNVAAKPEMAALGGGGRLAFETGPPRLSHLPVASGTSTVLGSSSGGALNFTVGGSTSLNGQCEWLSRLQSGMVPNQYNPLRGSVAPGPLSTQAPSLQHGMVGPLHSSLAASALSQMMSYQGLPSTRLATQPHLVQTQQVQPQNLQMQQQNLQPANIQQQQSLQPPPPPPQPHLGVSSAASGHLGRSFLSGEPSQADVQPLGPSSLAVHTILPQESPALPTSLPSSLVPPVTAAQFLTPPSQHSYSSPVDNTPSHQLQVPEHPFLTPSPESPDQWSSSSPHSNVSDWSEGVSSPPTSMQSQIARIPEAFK

In the case of `CC1=C(CO)C(=O)O[C@@H]([C@@H](C)[C@H]2CC[C@H]3[C@@H]4C[C@H]5O[C@]56[C@@H](OC(=O)c5ccccn5)C=CC(=O)[C@]6(C)[C@H]4CC[C@]23C)C1` [ASR490, Pyridine-2-carboxylic acid {17-[1-(5-hydroxymethyl-4-methyl-6-oxo-3,6-dihydro-2H-pyran-2-yl)-ethyl]-10,13-dimethyl-1-oxo, 4,6,7,8,9,10,11,12,13,14,15,16,17-tetradecahydro-20-oxacyclopropa[5,6]cyclopenta[a]phenanthren-4-yl}ester], the “reduction of colony forming ability” value (Notch1/HCT116 clone C4 [1]) is reported as 38%, the “reduction of colony forming ability” value (Notch1/HCT116 clone C5 [2]) is reported as 26.66% and the IC50 (SW-620 cells; SW-620, 24-h) is reported as 1200 nM. The IC50 (SW-620 cells; SW-620, 48-h) was 850 nM, the IC50 (ALDH+ (BCSC) cells; [11]) was 770 nM and the IC50 (ALDH+ (BCSC) cells; [12]) was 443 nM. The IC50 (ALDH− (BC) cells; [11]) was 1600 nM, the IC50 (ALDH− (BC) cells; [12]) was 836 nM and the tumor growth (pCMV/HCT116 xenografts) was “significant tumor growth inhibition”. For the same compound, the Notch3 expression (Notch3 in HCT116 cells) was “no change”, the “reduction of colony forming ability” value (pCMV/HCT116 cells) was 22.3% and the tumor growth [3] was “significant tumor growth inhibition”. For the same compound, the tumor burden [4] was “significantly reduced tumor burden”, the IC50 (HCT116 cells; HCT 116, 24-h) was 750 nM and the IC50 (HCT116 cells; HCT 116, 48-h) was 600 nM. For the same compound, the apoptosis (MDA-MB-231 cells; MDA MB-231, 24 h) was “approximately 20”, the apoptosis (MDA-MB-231 cells; MDA MB-231, 48 h) was ~43 and the proteasome inhibition [5] was “not a proteasomal inhibitor”. The IC50 (MDA-MB-231 TNBC cells; MDA-MB-231, 24 h) was 760 nM, the IC50 (MDA-MB-231 TNBC cells; MDA-MB-231, 48 h) was 444 nM and the “inhibition of proliferation by combination” value (MDA-MB-231 TNBC cells; ⅕th of IC50 of ASR490 (152 nM) in combination with 1/20th of IC50 of DOX (46.4 nM)) was 30%. For the same compound, the growth inhibition alone (MDA-MB-231 TNBC cells; ⅕th of IC50 of ASR490 alone) was “did not inhibit the growth”, the “growth of bladder cancer cells” value [6] was “failed inhibit their growth” and the IC50 (Notch1/HCT116 clone C5 [7]) was 1100 nM. The “growth of Notch1 silenced cells” value [8] was “failed to inhibit the growth”, the IC50 (Notch1/HCT116 clone C4 [9]) was 800 nM and the ubiquitin expression (ubiquitin in ALDH+ cells) was “time dependent increased ubiquitin expression”. For the same compound, the Notch2 expression (Notch2 in HCT116 cells) was “no change”, the “thermal stabilization of NRR protein” value (purified NRR protein) was “increased stabilization of NRR protein” and the “binding to NRR by CETSA” value [10] was “binds directly to NRR”. For the same compound, the “safe dose relative to dose used in efficacy studies” value (500 mg/kg vs 5 mg/kg) was 100 times and the “safe dose (MTD check)” value (nu/nu mice) was ≤ 500 mg/kg.
